GI50 data for 1 molecule are collected here from patent US10550105B2 (Ribon Therapeutics Inc., priority 2018, dated 2020).

Holding throughout (test): Growth inhibition of cancer cell lines, 72 hrs (CellTiter-Glo)
Format in all cases: cell-based
(ATP-based viability assays read luminescence as a measure of living cells.)

In one assay the test system is HDQ-P1. The conditions noted are these: Homo sapiens, breast, ductal carcinoma. As to the method: (§1) Example C: Inhibition of Cancer Cell Growth by Treatment with PARP7 Inhibitors
(§2) Table A-2 and Table A-3 (below) represents the concentration that causes 50% growth inhibition (GI50) in a panel of cancer cell lines with Compound 18B and Compound 561. Cells were plated into 384-well plates at a pre-specified density in fetal bovine serum-containing media. Cells were treated with compound or vehicle (DMSO) 24 hrs later, and a day zero plate was collected for analysis. Test compound plates were incubated continuously for 72 hrs (Table A-2) or 144 hours (Table A-3) cell growth was assessed using a luminescent cell viability assay (CellTiter-Glo, Promega). The GI50was determined by correcting for the cell count at time zero (time of treatment) and plotting data as percent growth relative to vehicle-treated cells.

The next assay relates to YD-10B. To be noted: upper aerodigestive tract, squamous cell carcinoma. As to the method: as §1, §2
The test system of a further assay is NCI-H2066. To be noted: lung, small cell carcinoma. The protocol: as §1, §2
Another assay concerns MDA-MB-468. To be noted: Homo sapiens, breast, not specified. The protocol: as §1, §2
A further assay concerns TE-8. To be noted: Homo sapiens, oesophagus, squamous cell carcinoma. As to the method: as §1, §2
In another assay the test system is YH-13. To be noted: central nervous system, astrocytoma Grade IV. As to the method: as §1, §2

SMILES strings stand for the structures.

Consider `N#Cc1ccc(N2CCN(C(=O)c3cccc(OC[C@@H]4c5ccccc5CN4c4cn[nH]c(=O)c4C(F)(F)F)c3)CC2)nc1` (single isomer, unassigned) [Example 18 Isomer B], for which the 50% growth inhibitory concentration (GI50) was 100 to 1000 nM in the assay with HDQ-P1; less than 100 nM with YD-10B; 100 to 1000 nM with NCI-H2066; less than 100 nM in the assay with MDA-MB-468; less than 100 nM with TE-8; less than 100 nM with YH-13.

The GI50 is the concentration giving 50% growth inhibition.
